Measurements taken from US20250360235A1, “RADI[…] AND METHOD FOR RADIOLABELLING” (Telix Innovations SA, priority 2024, published 2025).

Test: Radiochemical purity by iTLC over time after radiolabelling
Assay type: physicochemical
Protocol: Table 1 to Table 5 show the results of various radiolabelling experiments on radiochemical purity and the chelation yield. The radiolabelling experiments in the tables are carried out as described in: • Example 1 for when the gallium-68 source is GE Liquid target generator and EZAG GalliaPharm generator; • Example 2 for when the gallium-68 source is IRE Galli Eo generator; • Example 3 for when the gallium-68 source is GE solid target generator;
However, the experiments were carried out with the amount of ascorbic acid as indicated in the Tables 1 to 5, and the activity as indicated in the Tables 1 to 5. Radiochemical purities were measured at various times (T0, T1, T4, T6) after the radiolabelled experiments have been conducted.
The kits of Example 1, Example 2 or Example 3, with amounts of ascorbic acid as set out in Table 7 were used in the experiments for the ascorbic acid bracketing matrix. Three strengths of [^68Ga]Ga-PSMA-11 will be tested, i.e. 50 mCi/ml, 7 mCi/ml and 1 mCi/ml. Radiochemical purity was determined at different time points (TO, T1, T4 or T6), as set out in Table 7.

[1] = 25 mg ascorbic acid, 46.0-46.1 mCi, 4.38-4.39 mCi/mL, EZAG GalliaPharm, average of 2, T4 (4 h)
[2] = 25 mg ascorbic acid, 46.0-46.1 mCi, 4.38-4.39 mCi/mL, EZAG GalliaPharm, n=2, T0
[3] = 25 mg ascorbic acid, 46.0-46.1 mCi, 4.38-4.39 mCi/mL, EZAG GalliaPharm, n=2, T4 (4 h)
[4] = bracketing ~1 mCi/mL, 18.75 mg ascorbic acid, 8.9-11.5 mCi, 0.85-1.09 mCi/mL, IRE Galli Eo, average of 2, T0
[5] = bracketing ~1 mCi/mL, 18.75 mg ascorbic acid, 8.9-11.5 mCi, 0.85-1.09 mCi/mL, IRE Galli Eo, average of 2, T1 (1 h)
[6] = bracketing ~1 mCi/mL, 25 mg ascorbic acid, 8.8-12.7 mCi, 0.84-1.21 mCi/mL, 2 × IRE Galli Eo, average of 2, T0
[7] = bracketing ~1 mCi/mL, 25 mg ascorbic acid, 8.8-12.7 mCi, 0.84-1.21 mCi/mL, 2 × IRE Galli Eo, average of 2, T1 (1 h)
[8] = bracketing ~1 mCi/mL, 31.25 mg ascorbic acid, 15.2-26.9 mCi, 1.44-2.54 mCi/mL, EZAG GalliaPharm, average of 2, T0
[9] = bracketing ~1 mCi/mL, 31.25 mg ascorbic acid, 15.2-26.9 mCi, 1.44-2.54 mCi/mL, EZAG GalliaPharm, average of 2, T1 (1 h)
[10] = bracketing ~7 mCi/mL, 18.75 mg ascorbic acid, 51.0-58.0 mCi, 5.55-6.5 mCi/mL, IRE Galli Eo, average of 2, T0
[11] = bracketing ~7 mCi/mL, 18.75 mg ascorbic acid, 51.0-58.0 mCi, 5.55-6.5 mCi/mL, IRE Galli Eo, average of 2, T4 (4 h)
[12] = bracketing ~7 mCi/mL, 25 mg ascorbic acid, 51.6-74.4 mCi, 4.56-6.92 mCi/mL, 3 × GE Liquid Target, 3 × IRE Galli Eo, 3 × EZAG GalliaPharm, average of 9, T0
[13] = bracketing ~7 mCi/mL, 25 mg ascorbic acid, 51.6-74.4 mCi, 4.56-6.92 mCi/mL, 3 × GE Liquid Target, 3 × IRE Galli Eo, 3 × EZAG GalliaPharm, average of 9, T4 (4 h)
[14] = bracketing ~7 mCi/mL, 31.25 mg ascorbic acid, 61.5-62.0 mCi, 5.85-5.88 mCi/mL, EZAG GalliaPharm, average of 2, T0
[15] = bracketing ~7 mCi/mL, 31.25 mg ascorbic acid, 61.5-62.0 mCi, 5.85-5.88 mCi/mL, EZAG GalliaPharm, average of 2, T4 (4 h)
[16] = bracketing ~50 mCi/mL, 20 mg ascorbic acid, 514-544 mCi, 48.3-51.9 mCi/mL, GE Solid Target, average of 2, T0
[17] = bracketing ~50 mCi/mL, 20 mg ascorbic acid, 514-544 mCi, 48.3-51.9 mCi/mL, GE Solid Target, average of 2, T6 (6 h)
[18] = bracketing ~50 mCi/mL, 25 mg ascorbic acid, 537-551 mCi, 50.2-51.6 mCi/mL, GE Solid Target, average of 3, T0
[19] = bracketing ~50 mCi/mL, 25 mg ascorbic acid, 537-551 mCi, 50.2-51.6 mCi/mL, GE Solid Target, average of 3, T6 (6 h)
[20] = bracketing ~50 mCi/mL, 31.25 mg ascorbic acid, 500-544 mCi, 48.1-51.7 mCi/mL, GE Solid Target, average of 2, T0

**Q.** With `O=C([O-])CN(CCN(CC(=O)[O-])Cc1cc(CCC(=O)NCCCCCC(=O)NCCCC[C@H](NC(=O)N[C@@H](CCC(=O)O)C(=O)O)C(=O)O)ccc1[O-])Cc1cc(CCC(=O)O)ccc1[O-].[68Ga+3].[OH3+]` [[^68Ga]PSMA-11, gallium-68 radiolabelled Glu-urea-Lys-HBED-CC (gozetotide or PSMA-11)] as the compound, how does the “Radiochemical Purity (iTLC) Free and Colloidal Ga-68 (%)” value [1] read?
**A.** 0%

**Q.** And the “Radiochemical Purity (iTLC) Ga-68 PSMA-11 (%)” value [1]?
**A.** 100%

**Q.** And the “Radiochemical Purity (iTLC) Free and Colloidal Ga-68 (%)” value [2]?
**A.** C (C = all results conform to specifications)

**Q.** And the “Radiochemical Purity (iTLC) Ga-68 PSMA-11 (%)” value [2]?
**A.** C (C = all results conform to specifications)

**Q.** And the “Radiochemical Purity (iTLC) Free and Colloidal Ga-68 (%)” value [3]?
**A.** C (C = all results conform to specifications)

**Q.** What about the “Radiochemical Purity (iTLC) Ga-68 PSMA-11 (%)” value [3] of the same compound?
**A.** C (C = all results conform to specifications)

**Q.** And the “Radiochemical Purity (iTLC) Free and Colloidal Ga-68 (%)” value [4]?
**A.** 0%

**Q.** What about the “Radiochemical Purity (iTLC) Ga-68 PSMA-11 (%)” value [4] of the same compound?
**A.** 100%

**Q.** What about the “Radiochemical Purity (iTLC) Free and Colloidal Ga-68 (%)” value [5] of the same compound?
**A.** 0%

**Q.** And the “Radiochemical Purity (iTLC) Ga-68 PSMA-11 (%)” value [5]?
**A.** 100%

**Q.** What about the “Radiochemical Purity (iTLC) Free and Colloidal Ga-68 (%)” value [6] of the same compound?
**A.** 0%

**Q.** What about the “Radiochemical Purity (iTLC) Ga-68 PSMA-11 (%)” value [6] of the same compound?
**A.** 100%

**Q.** And the “Radiochemical Purity (iTLC) Free and Colloidal Ga-68 (%)” value [7]?
**A.** 0%

**Q.** What about the “Radiochemical Purity (iTLC) Ga-68 PSMA-11 (%)” value [7] of the same compound?
**A.** 100%

**Q.** And the “Radiochemical Purity (iTLC) Free and Colloidal Ga-68 (%)” value [8]?
**A.** 0%

**Q.** And the “Radiochemical Purity (iTLC) Ga-68 PSMA-11 (%)” value [8]?
**A.** 100%

**Q.** And the “Radiochemical Purity (iTLC) Free and Colloidal Ga-68 (%)” value [9]?
**A.** 0%

**Q.** And the “Radiochemical Purity (iTLC) Ga-68 PSMA-11 (%)” value [9]?
**A.** 100%

**Q.** What about the “Radiochemical Purity (iTLC) Free and Colloidal Ga-68 (%)” value [10] of the same compound?
**A.** 0%

**Q.** What about the “Radiochemical Purity (iTLC) Ga-68 PSMA-11 (%)” value [10] of the same compound?
**A.** 100%

**Q.** What about the “Radiochemical Purity (iTLC) Free and Colloidal Ga-68 (%)” value [11] of the same compound?
**A.** 0%

**Q.** And the “Radiochemical Purity (iTLC) Ga-68 PSMA-11 (%)” value [11]?
**A.** 100%

**Q.** And the “Radiochemical Purity (iTLC) Free and Colloidal Ga-68 (%)” value [12]?
**A.** 0%

**Q.** What about the “Radiochemical Purity (iTLC) Ga-68 PSMA-11 (%)” value [12] of the same compound?
**A.** 100%

**Q.** And the “Radiochemical Purity (iTLC) Free and Colloidal Ga-68 (%)” value [13]?
**A.** 1%

**Q.** And the “Radiochemical Purity (iTLC) Ga-68 PSMA-11 (%)” value [13]?
**A.** 99%

**Q.** What about the “Radiochemical Purity (iTLC) Free and Colloidal Ga-68 (%)” value [14] of the same compound?
**A.** 0%

**Q.** What about the “Radiochemical Purity (iTLC) Ga-68 PSMA-11 (%)” value [14] of the same compound?
**A.** 100%

**Q.** And the “Radiochemical Purity (iTLC) Free and Colloidal Ga-68 (%)” value [15]?
**A.** 0%

**Q.** And the “Radiochemical Purity (iTLC) Ga-68 PSMA-11 (%)” value [15]?
**A.** 100%

**Q.** What about the “Radiochemical Purity (iTLC) Free and Colloidal Ga-68 (%)” value [16] of the same compound?
**A.** 3%

**Q.** And the “Radiochemical Purity (iTLC) Ga-68 PSMA-11 (%)” value [16]?
**A.** 97%

**Q.** What about the “Radiochemical Purity (iTLC) Free and Colloidal Ga-68 (%)” value [17] of the same compound?
**A.** 2%

**Q.** And the “Radiochemical Purity (iTLC) Ga-68 PSMA-11 (%)” value [17]?
**A.** 98%

**Q.** What about the “Radiochemical Purity (iTLC) Free and Colloidal Ga-68 (%)” value [18] of the same compound?
**A.** 0%

**Q.** What about the “Radiochemical Purity (iTLC) Ga-68 PSMA-11 (%)” value [18] of the same compound?
**A.** 100%

**Q.** And the “Radiochemical Purity (iTLC) Free and Colloidal Ga-68 (%)” value [19]?
**A.** 1%

**Q.** What about the “Radiochemical Purity (iTLC) Ga-68 PSMA-11 (%)” value [19] of the same compound?
**A.** 99%

**Q.** And the “Radiochemical Purity (iTLC) Free and Colloidal Ga-68 (%)” value [20]?
**A.** 1%

**Q.** And the “Radiochemical Purity (iTLC) Ga-68 PSMA-11 (%)” value [20]?
**A.** 99%

**Q.** What about the “Radiochemical Purity (iTLC) Free and Colloidal Ga-68 (%)” value (bracketing ~50 mCi/mL, 31.25 mg ascorbic acid, 500-544 mCi, 48.1-51.7 mCi/mL, GE Solid Target, average of 2, T6 (6 h)) of the same compound?
**A.** 1%
